Source: US20230028680A1, “EXPANSION OF NATURAL KILLER CELLS AND ILC3 CELLS WITH NOVEL AROMATIC COMPOUNDS” (Celularity Inc., priority 2018, published 2023)
“Also recorded” adds a separate entry of the source.

How the values were obtained:
Type in all cases: cell-based, human
NK cells [1] = assay: NK cell expansion from CD34+ cells in three-stage NK culture, compound present for the first 14 days; conditions: for support of NK cell expansion (and differentiation), in words: compound at 10 μM during first 14 days of culture; for support of NK cell expansion (and differentiation), in words / level of expansion compared to SR1 at Day 35: Day 35; for level of expansion compared to SR1 at Day 35 / expansion, differentiation and cytotoxicity profiles compared to SR1: compound at 10 μM; for level of expansion compared to SR1 at Day 35: SR1 at 10 μM as positive control; for expansion, differentiation and cytotoxicity profiles compared to SR1: PNK-007 culture
Experimental: (§1) CD34^+ cells are cultured in the following medium formulations for the indicated number of days, and aliquots of cells are taken for assessment of cell count, cell viability, characterization of natural killer cell differentiation and functional evaluation.
(§2) Stage 1 medium: 90% Stem Cell Growth Medium (SCGM) (CellGro®), 10% Human Serum-AB, supplemented with 25 ng/mL or 250 ng/mL recombinant human thrombopoietin (TPO), 25 ng/mL recombinant human Flt3L, 27 ng/mL recombinant human stem cell factor (SCF), 25 ng/mL recombinant human IL-7, 0.05 ng/mL or 0.025 ng/mL recombinant human IL-6, 0.25 ng/mL or 0.125 ng/mL recombinant human granulocyte colony-stimulating factor (G-CSF), 0.01 ng/mL or 0.025 ng/mL recombinant human granulocyte-macrophage colony-stimulating factor (GM-CSF), 0.10% gentamicin, and 1 to 10 μm StemRegenin-1 (SR-1) or other stem cell mobilizing agent.
(§3) Stage 2 medium: 90% SCGM, 10% Human Serum-AB, supplemented with 25 ng/mL recombinant human Flt3L, 27 ng/mL recombinant human SCF, 25 ng/mL recombinant human IL-7, 20 ng/mL recombinant human IL-15, 0.05 ng/mL or 0.025 ng/mL recombinant human IL-6, 0.25 ng/mL or 0.125 ng/mL recombinant human granulocyte colony-stimulating factor (G-CSF), 0.01 ng/mL or 0.025 ng/mL recombinant human granulocyte-macrophage colony-stimulating factor (GM-CSF), 0.10% gentamicin, and 1 to […] SR1 or other stem cell mobilizing agent.
Stage 3 medium: 90% STEMMACS′, 10% Human Serum-AB, 0.025 mM 2-mercaptoethanol (55 mM), supplemented with 22 ng/mL recombinant human SCF, 1000 U/mL recombinant human IL-2, 20 ng/mL recombinant human IL-7, 20 ng/mL recombinant human IL-15, 0.05 ng/mL or 0.025 ng/mL recombinant human IL-6, 0.25 ng/mL or 0.125 ng/mL recombinant human granulocyte colony-stimulating factor (G-CSF), 0.01 ng/mL or 0.025 ng/mL recombinant human granulocyte-macrophage colony-stimulating factor (GM-CSF), and 0.10% gentamicin.
(§4) Cells are seeded at Day 0 at 3×10^4 cells/mL in Stage 1 media, and cells are tested for purity by a CD34+ and CD45+ count and viability by 7AAD staining. At Day 5 cells are counted and seeded to a concentration of 1×10^5 cells/mL with Stage 1 medium. At Day 7 cells are counted and seeded to a concentration of 1×10^5 cells/mL with Stage 1 medium.
At Day 10, cells are counted and seeded to a concentration of 1×10^5 cells/mL in Stage 2 medium. At Day 12, cells are counted and seeded to a concentration of 3×10^5 cells/mL in Stage 2 medium. At Day 14, cells are counted and seeded in Stage 3 medium. Cells are maintained in Stage 3 media until day 35.
(§5) UCB CD34+ cells were cultivated in presence of cytokines including thrombopoietin, SCF, Flt3 ligand, IL-7, IL-15 and IL-2 for 35 days to produce three-stage NK cells, as described in Example 1. Multi-color flow cytometry was used to determine the phenotypic characteristics of three-stage NK cells.
(§6) For biological testing, the compounds were provided to culture to evaluate their effects on NK cell expansion and differentiation. Specifically, donors of CD34+ cells (StemCell Technology) were thawed and expanded in vitro following NK culture protocol. During the first 14 days of the culture, each CRL compounds was dissolved in DMSO and added to the culture at 10 μM concentration. SR1 (at 10 μM) served as a positive control compound, while DMSO alone without any compound served as a negative control. At the end of the culture on Day 35, cell expansion, natural killer (NK) cell differentiation and cytotoxicity of the cells against K562 tumor cell line were characterized. Due to the large number of the compounds, the testing was performed in two experiments, CRL1-11 and CRL 12-22. The same donors were used for each experiment. Positive and negative controls were also included in both experiments.

K562 tumor cells = assay: Cytotoxicity assay of compound cultured cells against K562 tumor cells; conditions: 10:1 E:T ratio, both donors
Experimental: as §6
Cytotoxicity assay was run using compound cultured cells against K562 tumor cells at 10:1 effector to target ratio (FIG. 5) to evaluate cell functions.

NK cells [2] = assay: NK cell differentiation at Day 35 by multi-color flow cytometry; conditions: PNK-007 culture, compound at 10 μM
From the text: as §5, §6

CD34 cells = assay: CD34 cell expansion at Day 14 of the NK culture; conditions: compound at 10 μM; Day 14 of the culture
Experimental: as §1, §2, §3, §4
At Day 10, cells are counted and seeded to a concentration of 1×10^5 cells/mL in Stage 2 medium. At Day 12, cells are counted and seeded to a concentration of 3×10^5 cells/mL in Stage 2 medium. At Day 14, cells are counted and seeded in Stage 3 medium. Cells are maintained in Stage 3 media until day 35. […]

Compound	support of NK cell expansion (and differentiation), in words (NK cells [1])	level of expansion compared to SR1 at Day 35 (NK cells [1])	killing activities of cultured cells compared to those cultured with SR1 (K562 tumor cells)	CD56+/CD11a+ subpopulation compared to SR1 (NK cells [2])	expansion, differentiation and cytotoxicity profiles compared to SR1 (NK cells [1])	CD34 cell expansion at Day 14 (CD34 cells)
CCC(C)Nc1cc(-c2cncc(C#N)c2)nc(NCCc2c[nH]c3ccccc23)n1 (centres unmarked) [CRL7, 5-(2-((2-(1H-indol-3-yl)ethyl)amino)-6-(sec-butylamino)pyrimidin-4-yl)nicotinonitrile]	Except for CRL7 and CRL13, the rest of the compounds all resulted in a NK expansion; also recorded: all the compounds except CRL7 and CRL13 supported PNK-007 expansion and differentiation					
CCC(C)Nc1nc(NCCc2c[nH]c3ccccc23)c2ccccc2n1 (centres unmarked) [CRL13, N^4-(2-(1H-indol-3-yl)ethyl)-N^2-(sec-butyl)quinazoline-2,4-diamine]	Except for CRL7 and CRL13, the rest of the compounds all resulted in a NK expansion; also recorded: all the compounds except CRL7 and CRL13 supported PNK-007 expansion and differentiation					
CC(C)c1csc2c(NCCc3c[nH]c4ccccc34)nc(-c3cncc(C#N)c3)nc12 [CRL17, 5-(4-((2-(1H-indol-3-yl)ethyl)amino)-7-isopropylthieno[3,2-d]pyrimidin-2-yl)nicotinonitrile]		slightly less expansion compared to SR1	increased killing activities of the cells	increased CD56+/CD11a+ subpopulation		
CC(C)c1csc2c(NCCc3c[nH]c4ccccc34)nc(-c3cncc(F)c3)nc12 [CRL18, N-(2-(1H-indol-3-yl)ethyl)-2-(5-fluoropyridin-3-yl)-7-isopropylthieno[3,2-d]pyrimidin-4-amine]		slightly less expansion compared to SR1	increased killing activities of the cells	increased CD56+/CD11a+ subpopulation		
Fc1cncc(-c2nc(NCCc3c[nH]c4ccccc34)c3occc3n2)c1 [CRL19, N-(2-(1H-indol-3-yl)ethyl)-2-(5-fluoropyridin-3-yl)furo[3,2-d]pyrimidin-4-amine]	supported cell expansion the best				very similar expansion, differentiation and cytotoxicity profiles as SR1	achieved the highest CD34 cell expansion
Cc1cncc(-c2nc(NCCc3c[nH]c4ccccc34)c3occc3n2)c1 [CRL20, N-(2-(1H-indol-3-yl)ethyl)-2-(5-methylpyridin-3-yl)furo[3,2-d]pyrimidin-4-amine]	supported cell expansion the best				very similar expansion, differentiation and cytotoxicity profiles as SR1	achieved the highest CD34 cell expansion
Cc1cncc(-c2nc(NCCc3c[nH]c4ccccc34)c3scc(C(C)C)c3n2)c1 [CRL21, N-(2-(1H-indol-3-yl)ethyl)-7-isopropyl-2-(5-methylpyridin-3-yl)thieno[3,2-d]pyrimidin-4-amine]		slightly less expansion compared to SR1	increased killing activities of the cells	increased CD56+/CD11a+ subpopulation		
N#Cc1cncc(-c2nc(NCCc3c[nH]c4ccccc34)c3occc3n2)c1 [CRL22, 5-(4-((2-(1H-indol-3-yl)ethyl)amino)furo[3,2-d]pyrimidin-2-yl)nicotinonitrile]	supported cell expansion the best				very similar expansion, differentiation and cytotoxicity profiles as SR1	achieved the highest CD34 cell expansion
